pIC50: −log10 of the molar value. Where a name gives a salt, the structure may show the parent alone. Bounds are passed on as bounds.

The target of data set [1] is T1, YAP-TEAD interaction (human YAP2-His6 (50-114) / human TEAD1-GST (209-426)) (Homo sapiens, UniProt P28347).
T1 construct: GST-TEAD1 (209-426) produced in E. coli; made in house; host or cells: E. coli
The data set is described as follows: YAP-TEAD AlphaLISA assay. Particulars: YAP-TEAD AlphaLISA; for Emax: 2 h, maximal % inhibition, read-out: Max Act.; for pIC50: 2 h equilibration at room temperature. It counts as binding. On the procedure:
YAP-TEAD AlphaLISA Assay for IC50 Value Determination.
YAP-TEAD binding and inhibition was assessed by monitoring the engagement of YAP2 peptide (human YAP2-His6 (50-114) produced in E. coli) with TEAD (human TEAD1-GST (GST-TEAD1 (209-426) produced in E. coli) using the AlphaLisa technology (Perkin-Elmer). Specifically, in a 384 well (Axygen) 5 μl of compounds were dispensed in 100% DMSO following a semi log serial dilution, with a top concentration of […] (10 concentrations). A ‘3 partners solution’ was prepared by mixing AlphaScreen Glutathione Donor beads 15 μg/ml (PerkinElmer), Anti-6×His AlphaLisA Acceptor beads 15 μg/ml (PerkinElmer) and Human YAP2 9 nM in 100 mM NaCl, 25 mM Hepes, 0.1% BSA, 0.5% NoNidet®P40 buffer. In the 384 assay plate (Proxiplate, Perkin-Elmer)) 2 μl of compound at each concentration, 6 μl of buffer, 6 μl of hTEAD1-GST 9 nM and 6 μl of ‘3 partner solution’ were mixed. After 2 h equilibration at room temperature in the dark the plates were read on an Envision instrument (Excitation @ 680 nm/Emission @ 570 nm, Perkin Elmer).
Results were expressed as % inhibition=100×((HighControl−Cpd)/(HighControl−LowControl)), were High control is the maximum response obtained with all components and Low control is the basal response obtained with all components without GST-Tead1.
Cpd is the response obtained for test compounds.
IC50 (half maximal inhibitory concentration) was determined by fitting the concentration response curves using a 3-parameter curve fit equation and determining concentration corresponding to 50% inhibition.

T1 sequence (P28347 209-426): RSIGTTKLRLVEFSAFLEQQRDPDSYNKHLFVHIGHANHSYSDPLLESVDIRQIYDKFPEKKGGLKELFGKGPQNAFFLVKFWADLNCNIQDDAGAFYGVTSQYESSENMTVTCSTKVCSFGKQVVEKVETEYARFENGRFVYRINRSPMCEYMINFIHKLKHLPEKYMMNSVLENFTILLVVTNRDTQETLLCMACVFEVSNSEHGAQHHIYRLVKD

Broadly, the melting point is the temperature of the solid-liquid transition. In general, pIC50 refers to the negative decadic logarithm of the IC50, by convention in mol/L. Lower therefore signals a large IC50. In the case of `COc1cc(/C=N/N(C)C2=NS(=O)(=O)c3cc(C(=O)O)ccc32)ccc1O` [Example 34, 3-[[(E)-(4-hydroxy-3-methoxy-phenyl)methyleneamino]-methyl-amino]-1,1-dioxo-1,2-benzothiazole-6-carboxylic acid], the melting point was over 260 °C. Further, in data set [1], the Emax is 97% and the negative logarithm of the IC50 (pIC50) is 5.34.
The compound `COc1cc(/C=N/N(C)C2=NS(=O)(=O)c3c(C)cc(F)cc32)ccc1O` [Example 20, 4-[(E)-[(5-fluoro-7-methyl-1,1-dioxo-1,2-benzothiazol-3-yl)-methyl-hydrazono]methyl]-2-methoxy-phenol] yielded a melting point of over 260 °C. Moreover, in data set [1], the Emax was found to be 95% and the pIC50 was 5.47.
Consider `COc1cc(OC)c2c(c1)C(N(CCO)/N=C/c1ccc(O)c(OC)c1)=NS2(=O)=O` [Example 17, 4-[(E)-[(5,7-dimethoxy-1,1-dioxo-1,2-benzothiazol-3-yl)-(2-hydroxyethyl) hydrazono]methyl]-2-methoxy-phenol], for which, in data set [1], the Emax was 90% and the pIC50 is 6.82.
For the compound `COc1ccc2c(c1)C(N(CCCO)/N=C/c1ccc(O)c(OC)c1)=NS2(=O)=O` [Example 14, 4-[(E)-[3-hydroxypropyl-(5-methoxy-1,1-dioxo-1,2-benzothiazol-3-yl) hydrazono]methyl]-2-methoxy-phenol], in data set [1], the Emax stood at 90% and the pIC50 is 5.79.
Regarding `COc1cc(/C=N/N(C)C2=NS(=O)(=O)c3cc(F)ccc32)ccc1O` [Example 41, 4-[(E)-[(6-fluoro-1,1-dioxo-1,2-benzothiazol-3-yl)-methyl-hydrazono]-methyl]-2-methoxy-phenol], in data set [1], the Emax is 85% and the negative logarithm of the IC50 (pIC50) is 5.24.
With `COc1cc(/C=N/N(CCN2CCOCC2)C2=NS(=O)(=O)c3c(OC)cccc32)ccc1O` [Example 23, 2-methoxy-4-[(E)-[(7-methoxy-1,1-dioxo-1,2-benzothiazol-3-yl)-(2-morpholinoethyl)hydrazono]methyl]phenol hydrochloride], in data set [1], the Emax was found to be 99% and the pIC50 was 6.52.
For `COc1cc(/C=N/N(C)C2=NS(=O)(=O)c3cc(-c4ccccc4)ccc32)ccc1O` [Example 39, 4-[(E)-[(1,1-dioxo-6-phenyl-1,2-benzothiazol-3-yl)-methyl-hydrazono]-methyl]-2-methoxy-phenol] the same measures were 61% and 4.21.
Take `COc1cc(/C=N/N(C)C2=NS(=O)(=O)c3c(OC)cc(C)cc32)ccc1O` [Example 31, 2-methoxy-4-[(E)-[(7-methoxy-5-methyl-1,1-dioxo-1,2-benzothiazol-3-yl)-methyl-hydrazono]methyl]phenol]: in data set [1], the Emax is 92% and the negative-log IC50 (pIC50) is 6.88.
For `COc1cc(/C=N/N(CCN2CCOCC2)C2=NS(=O)(=O)c3c(OC)cc(C)cc32)ccc1O` [Example 32, 2-methoxy-4-[(E)-[(7-methoxy-5-methyl-1,1-dioxo-1,2-benzothiazol-3-yl)-(2-morpholinoethyl)hydrazono]methyl]phenol hydrochloride] the same measures were 95% and 6.86.
As to `COc1cc(/C=N/N(C)C2=NS(=O)(=O)c3c(OC)cccc32)ccc1O` [Example 21, 2-methoxy-4-[(E)-[(7-methoxy-1,1-dioxo-1,2-benzothiazol-3-yl)-methyl-hydrazono]methyl]phenol], in data set [1], the Emax is 89% and the pIC50 was 6.91.
For `COc1cc(/C=N/N(C)C2=NS(=O)(=O)c3ccc(C)cc32)ccc1O` [Example 25, 2-methoxy-4-[(E)-[methyl-(5-methyl-1,1-dioxo-1,2-benzothiazol-3-yl)hydrazono]methyl]phenol], in data set [1], the Emax came to 90% and the pIC50 was 6.25.
`COc1cc(/C=N/N(C)C2=NS(=O)(=O)c3cc(C)ccc32)ccc1O` [Example 33, 2-methoxy-4-[(E)-[methyl-(6-methyl-1,1-dioxo-1,2-benzothiazol-3-yl)hydrazono]methyl]phenol]: in data set [1], the Emax came to 90% and the negative logarithm of the IC50 (pIC50) was 6.12.
As to `COc1cc(/C=N/N(CCN2CCOCC2)C2=NS(=O)(=O)c3ccccc32)ccc1O` [Example 4, 4-[(E)-[(1,1-dioxo-1,2-benzothiazol-3-yl)-(2-morpholinoethyl)hydrazono]methyl]-2-methoxy-phenol hydrochloride], in data set [1], the Emax was 97% and the pIC50 was 6.21.
For the compound `COc1ccc2c(c1)C(N(CCO)/N=C/c1ccc(O)c(OC)c1)=NS2(=O)=O` [Example 11, 4-[(E)-[2-hydroxyethyl-(5-methoxy-1,1-dioxo-1,2-benzothiazol-3-yl) hydrazono]methyl]-2-methoxy-phenol], in data set [1], the Emax was found to be 94% and the pIC50 was 6.32.
Take `COc1ccc2c(c1)S(=O)(=O)N=C2N(C)/N=C/c1ccc(O)c(OC)c1` [Example 40, 2-methoxy-4-[(E)-[(6-methoxy-1,1-dioxo-1,2-benzothiazol-3-yl)-methyl hydrazono]methyl]phenol]: in data set [1], the Emax amounted to 91% and the pIC50 is 4.79.
Consider `COc1cc(/C=N/N(CCO)C2=NS(=O)(=O)c3ccc(C)cc32)ccc1O` [Example 27, 4-[(E)-[2-hydroxyethyl-(5-methyl-1,1-dioxo-1,2-benzothiazol-3-yl)hydrazono]methyl]-2-methoxy-phenol], for which, in data set [1], the Emax was determined as 91% and the pIC50 was 6.05.
As for `COc1cc(OC)c2c(c1)C(N(CCN1CCOCC1)/N=C/c1ccc(O)c(OC)c1)=NS2(=O)=O` [Example 18, 4-[(E)-[(5,7-dimethoxy-1,1-dioxo-1,2-benzothiazol-3-yl)-(2-morpholino-ethyl)hydrazono]methyl]-2-methoxy-phenol hydrochloride], in data set [1], the Emax amounted to 97% and the negative-log IC50 (pIC50) was 7.08.

(Values after patent US10414739B2, “Compounds as inhibitors of the YAP/TAZ-TEAD interaction and their use in the treatment of malignant mesothelioma” (INVENTIVA, priority 2015, dated 2019).)
